In patent EP2119770B1, “Production of alpha-oxyfunctionalized carbonyl compounds” (priority 2008, dated 2009):

Key:
Format in all cases: biochemical
[1] = molecular target: T1, Gox0646 (Gluconobacter oxydans, UniProt Q5FT73); test: Enzyme activity assay (rate of NAD(P)H decrease at 340 nm), Gox0646; conditions: 10 mM substrate; for Specific Activities: Tab. 9, GOX0646, cofactor NADPH, pH 7.0, 30 °C; for Activity: Table 3, Gox0646, K-phosphate buffer pH 7.0, 0.05 mM NAD(P)H, 30 °C
T1 sequence (Q5FT73 1-264): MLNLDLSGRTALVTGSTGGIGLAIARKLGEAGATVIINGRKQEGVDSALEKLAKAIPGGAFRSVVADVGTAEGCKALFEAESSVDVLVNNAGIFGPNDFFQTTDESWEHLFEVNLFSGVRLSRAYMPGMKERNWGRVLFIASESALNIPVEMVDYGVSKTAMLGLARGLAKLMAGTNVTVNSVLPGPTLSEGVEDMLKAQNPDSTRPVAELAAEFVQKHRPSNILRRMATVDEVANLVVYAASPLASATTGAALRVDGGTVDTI
Protocol: Measurment of enzyme activity: NADPH-dependent alpha-ketocarbonyl reductases were assayed by a routine method used for NAD(P)-linked enzymes by recording the rate of decrease of NADPH at 340 nm (ε = 6.22 mM^-1 x cm^-1)) with substrates at 30 °C. The reaction mixture (1 ml) for reduction of alpha-ketocarbonyl substrates contained 10 mM substrate, 40 mM potassium phosphate buffer pH 7.0, 0.025 mM NAD(P)H , and the enzyme. Reactions were induced by addition of enzyme or substrate. One unit of enzyme activity was defined as the amount of enzyme catalyzing the conversion of 1 µmol of pyridine nucleotide per min at 30 °C.
NADPH-dependent α-ketocarbonyl reductases were assayed by a routine method used for NAD(P)-linked enzymes by recording the rate of decrease of NADPH at 340 nm (ε = 6.22 mM^-1.cm^-1) with substrates at 30 °C. The reaction mixture (1 ml) for reduction of alpha-ketocarbonyl substrates contained 10 mM substrate, 40 mM potassium phosphate buffer pH 7.0, 0.025 mM NADPH , and the enzyme. Reactions were induced by addition of enzyme or substrate. One unit of enzyme activity was defined as the amount of enzyme catalyzing the conversion of 1 µmol of pyridine nucleotide per min at 30 °C.
For each enzyme (Gox0313, Gox0502, Gox0644, Gox0646, Gox1615, Gox2107, and Gox2684 respectively), fresh enzyme preparations were used to validate the substrate spectrum and the kinetic activity. […] Purified NAD(P)-dependent oxidoreductases were assayed at 30 °C by a routine method used for NAD(P)-linked enzymes by recording the rate of decrease of NAD(P)H at 340 nm (ε = […]) with substrates capable of reduction reactions. The standard reaction mixture (1 ml) for the reduction reactions of substrates contained 10 mM substrate, 40 mM potassium phosphate buffer (K-phosphate buffer) pH 7.0, 0.05 mM NAD(P)H, and the enzyme unless otherwise noted. Reactions were induced by addition of enzyme or substrate. One unit of enzyme activity was defined as the amount of enzyme catalyzing the conversion of 1 µmol of pyridine nucleotide per min at 30 °C. Measurement of the protein content was performed by the method of Bradford in Anal. Biochem. 72:248-254 (1976). Table 3: Summary of enzymatic activities with α-diketones, α-ketoaldehydes and /or α-ketoesters

[2] = molecular target: T2, Gox2684 (Gluconobacter oxydans, UniProt Q5HXK5); test: Enzyme activity assay (rate of NAD(P)H decrease at 340 nm), Gox2684; conditions: for Specific Activities: Tab. 8, GOX2684, cofactor NADPH, 10 mM substrate, pH 7.0, 30 °C; for activities: Gox2684, substrates with highest activities
T2 sequence (Q5HXK5 1-357): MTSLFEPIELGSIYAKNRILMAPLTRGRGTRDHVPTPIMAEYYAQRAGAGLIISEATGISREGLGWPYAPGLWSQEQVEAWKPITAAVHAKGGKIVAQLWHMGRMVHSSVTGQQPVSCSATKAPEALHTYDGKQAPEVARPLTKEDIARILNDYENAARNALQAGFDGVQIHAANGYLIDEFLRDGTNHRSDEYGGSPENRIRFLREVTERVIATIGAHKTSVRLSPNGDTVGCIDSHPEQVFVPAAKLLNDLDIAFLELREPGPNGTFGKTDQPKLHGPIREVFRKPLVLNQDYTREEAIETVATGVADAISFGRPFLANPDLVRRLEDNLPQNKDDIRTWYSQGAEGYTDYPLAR
How it was run: (§1)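 Purified enzymes assayed at 30 °C in 40 mM potassium phosphate pH 7.0 with 10 mM substrate and NAD(P)H (0.025 mM, or 0.05 mM in the standard mixture), started by adding enzyme or substrate. Activity followed as the rate of NAD(P)H decrease at 340 nm; one unit = 1 µmol pyridine nucleotide converted per min; protein measured by Bradford.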

[3] = molecular target: T3, Gox0502 (Gluconobacter oxydans, UniProt Q5FTL6); test: Enzyme activity assay (rate of NAD(P)H decrease at 340 nm), Gox0502; parameters: Strep-tag II (N); made in house; host or cells: E. coli BL21 or E. coli DH5α (pASK-IBA5); conditions: 10 mM substrate; for Specific Activity: Tab. 7, Gox0502, cofactor NADPH, pH 7.0, 30 °C; for Activity: Table 3, Gox0502, K-phosphate buffer pH 7.0, 0.05 mM NAD(P)H, 30 °C
T3 sequence (Q5FTL6 1-361): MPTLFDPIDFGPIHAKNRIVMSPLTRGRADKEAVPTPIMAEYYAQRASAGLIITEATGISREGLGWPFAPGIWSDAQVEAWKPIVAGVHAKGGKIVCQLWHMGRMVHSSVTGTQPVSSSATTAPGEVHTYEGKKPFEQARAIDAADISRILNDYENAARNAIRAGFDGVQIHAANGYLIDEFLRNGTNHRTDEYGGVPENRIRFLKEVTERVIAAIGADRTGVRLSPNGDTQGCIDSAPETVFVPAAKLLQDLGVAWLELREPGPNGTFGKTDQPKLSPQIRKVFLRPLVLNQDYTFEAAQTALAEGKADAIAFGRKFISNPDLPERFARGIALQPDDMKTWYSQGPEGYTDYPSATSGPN
How it was run: as §1

Row | activities [2] [U/mg protein] | SMILES | Specific Activities [1] [U/mg] | Activity [1] [U/mg] | Specific Activities [2] [U/mg] | Specific Activity [3] | Activity [3] [U/mg]
1 |  | CCC(=O)C(=O)CC [3,4-hexanedione] | 2.0 | 2.0 | 0.6 | 2,0 U/mg | 2.0
2 | 2.3 | CCCC(=O)C(C)=O [2,3-hexanedione] | 8.0 | 8.0 | 2.3 | 1.0 U/mg | 
3 |  | CCC(=O)C(C)=O [2,3-pentanedione] | 8.0 | 8.0 | 0.6 |  | 
4 | 2.1 | O=CC(=O)c1ccccc1 [phenylglyoxal] |  |  | 2.1 | 15.7 U/mg | 15.7
5 |  | CC(=O)C=O [methylglyoxal] | 0.2 | 0.2 | 1.4 | 1.5 U/mg | 
